# Results as given in the supplement of paper PMC4862054.
# Assays:
# Conditions in all cases: 72 h
# MDA-MB-453 [1] = tested on: MDA-MB-453
# Experimental: (§1)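 Drug sensitivity and resistance testing (DSRT) of breast cancer cell lines in 384-well plates, 5 concentrations in 10-fold dilutions over a compound-specific 10,000-fold range. After 72 h, cytotoxicity was read by CellTox Green fluorescence and viability by CellTiter-Glo luminescence (multiplexed), normalised to DMSO and benzethonium chloride controls. EC50 is the inflection point of the fitted dose-response curve (bottom asymptote free, so it can be relative for partial curves) and is censored at the highest tested concentration. Rows with DSS 0 (no meaningful response) were excluded.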
# HDQ-P1 [2] = tested on: HDQ-P1
# Experimental: as §1
# CAL-51 [3] = tested on: CAL-51
# Experimental: as §1
# CAL-85-1 [4] = tested on: CAL-85-1
# Experimental: as §1
# MDA-MB-453 [5] = tested on: MDA-MB-453; remark: listed apart in the source
# Outline: (§2)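 Breast cancer cell lines in 20 µl suspension were added to 384-well plates already holding compound at 5 concentrations, spaced in 10-fold steps across a compound-specific 10,000-fold range, and incubated for 72 h. CellTox Green fluorescence (485/520 nm) was read first to measure cell death, followed by CellTiter-Glo luminescence for viability after 10 min at room temperature. Each plate was normalised to 0.1 % DMSO and a positive kill control. EC50 values came from dose-response curve fits and were censored at the top concentration.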
# HDQ-P1 [6] = tested on: HDQ-P1; remark: listed apart in the source
# Outline: as §2
# CAL-51 [7] = tested on: CAL-51; remark: listed apart in the source
# Outline: as §2
# CAL-85-1 [8] = tested on: CAL-85-1; remark: listed apart in the source
# Outline: as §2
# SK-BR-3 [9] = tested on: SK-BR-3
# Outline: as §2
# MCF-10A [10] = tested on: MCF-10A
# Outline: as §2
# MFM-223 [11] = tested on: MFM-223
# Experimental: as §1
# HCC1599 [12] = tested on: HCC1599
# Experimental: as §1
# HCC1937 [13] = tested on: HCC1937
# Experimental: as §1
# MDA-MB-468 [14] = tested on: MDA-MB-468
# Experimental: as §1
# BT-474 [15] = tested on: BT-474
# Experimental: as §1
# MDA-MB-436 [16] = tested on: MDA-MB-436
# Experimental: as §1
# MCF-10A [17] = tested on: MCF-10A; remark: listed apart in the source
# Experimental: as §1
# Hs578T [18] = tested on: Hs578T
# Experimental: as §1
# MFM-223 [19] = tested on: MFM-223; remark: listed apart in the source
# Outline: (§3)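 EC50 is the value from a fitted percent-inhibition dose-response curve, censored at the highest concentration, and rows with zero drug sensitivity score were not kept. The underlying assay seeded breast cancer cell lines in 20 µl onto 384-well plates pre-loaded with compound in 5 µl medium for 72 h. Viability was then read by CellTiter-Blue fluorescence at 560/590 nm after 2 h at 37 °C, with each plate normalised to vehicle and a positive kill control.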
# BT-549 [20] = tested on: BT-549
# Outline: as §3
# MDA-MB-468 [21] = tested on: MDA-MB-468; remark: listed apart in the source
# Outline: as §3
# BT-474 [22] = tested on: BT-474; remark: listed apart in the source
# Outline: as §3
# SK-BR-3 [23] = tested on: SK-BR-3; remark: listed apart in the source
# Outline: as §3
# MDA-MB-436 [24] = tested on: MDA-MB-436; remark: listed apart in the source
# Outline: as §3
# CAL-120 [25] = tested on: CAL-120
# Outline: as §3
# Hs578T [26] = tested on: Hs578T; remark: listed apart in the source
# Outline: as §3
# MFM-223 [27] = tested on: MFM-223; remark: listed apart in the source
# Outline: as §2
# BT-549 [28] = tested on: BT-549; remark: listed apart in the source
# Outline: as §2
# HCC1599 [29] = tested on: HCC1599; remark: listed apart in the source
# Outline: as §2
# HCC1143 = tested on: HCC1143
# Outline: as §2
# HCC1937 [30] = tested on: HCC1937; remark: listed apart in the source
# Outline: as §2
# CAL-148 [31] = tested on: CAL-148
# Outline: as §2
# MDA-MB-468 [32] = tested on: MDA-MB-468; remark: listed apart in the source
# Outline: as §2
# BT-474 [33] = tested on: BT-474; remark: listed apart in the source
# Outline: as §2
# MDA-MB-231 = tested on: MDA-MB-231
# Outline: as §2
# DU-4475 [34] = tested on: DU-4475
# Outline: as §2
# MDA-MB-436 [35] = tested on: MDA-MB-436; remark: listed apart in the source
# Outline: as §2
# CAL-120 [36] = tested on: CAL-120; remark: listed apart in the source
# Outline: as §2
# Hs578T [37] = tested on: Hs578T; remark: listed apart in the source
# Outline: as §2
# MDA-MB-453 [38] = tested on: MDA-MB-453; remark: listed apart in the source
# Outline: as §3
# HDQ-P1 [39] = tested on: HDQ-P1; remark: listed apart in the source
# Outline: as §3
# CAL-148 [40] = tested on: CAL-148; remark: listed apart in the source
# Outline: as §3
# CAL-51 [41] = tested on: CAL-51; remark: listed apart in the source
# Outline: as §3
# CAL-85-1 [42] = tested on: CAL-85-1; remark: listed apart in the source
# Outline: as §3
# DU-4475 [43] = tested on: DU-4475; remark: listed apart in the source
# Outline: as §3
smiles,measurement,setting,value
C=CC(=O)N1CCC[C@@H](n2nc(-c3ccc(Oc4ccccc4)cc3)c3c(N)ncnc32)C1 [Ibrutinib],"EC50, CellTox Green",MDA-MB-453 [1],943 nM
same,"EC50, CellTox Green",HDQ-P1 [2],> 1000 nM
same,"EC50, CellTox Green",CAL-51 [3],> 1000 nM
same,"EC50, CellTox Green",CAL-85-1 [4],416 nM
same,"EC50, CellTiter-Glo",MDA-MB-453 [5],10.5 nM
same,"EC50, CellTiter-Glo",HDQ-P1 [6],168 nM
same,"EC50, CellTiter-Glo",CAL-51 [7],415 nM
same,"EC50, CellTiter-Glo",CAL-85-1 [8],493 nM
same,"EC50, CellTiter-Glo",SK-BR-3 [9],11.9 nM
same,"EC50, CellTiter-Glo",MCF-10A [10],198 nM
O=C(Cc1ccc(-c2ccc(OCCN3CCOCC3)cc2)cn1)NCc1ccccc1 [KX2-391],"EC50, CellTox Green",MFM-223 [11],328 nM
same,"EC50, CellTox Green",HDQ-P1 [2],4110 nM
same,"EC50, CellTox Green",HCC1599 [12],267 nM
same,"EC50, CellTox Green",HCC1937 [13],5000 nM
same,"EC50, CellTox Green",CAL-51 [3],23.8 nM
same,"EC50, CellTox Green",MDA-MB-468 [14],19.4 nM
same,"EC50, CellTox Green",BT-474 [15],307 nM
same,"EC50, CellTox Green",CAL-85-1 [4],22.1 nM
same,"EC50, CellTox Green",MDA-MB-436 [16],> 10000 nM
same,"EC50, CellTox Green",MCF-10A [17],59.8 nM
same,"EC50, CellTox Green",Hs578T [18],523 nM
same,"EC50, CellTiter-Blue viability",MFM-223 [19],57.4 nM
same,"EC50, CellTiter-Blue viability",BT-549 [20],37.8 nM
same,"EC50, CellTiter-Blue viability",MDA-MB-468 [21],40.3 nM
same,"EC50, CellTiter-Blue viability",BT-474 [22],47.9 nM
same,"EC50, CellTiter-Blue viability",SK-BR-3 [23],34.8 nM
same,"EC50, CellTiter-Blue viability",MDA-MB-436 [24],51.4 nM
same,"EC50, CellTiter-Blue viability",CAL-120 [25],31.3 nM
same,"EC50, CellTiter-Blue viability",Hs578T [26],27.9 nM
same,"EC50, CellTiter-Glo",MFM-223 [27],83.9 nM
same,"EC50, CellTiter-Glo",MDA-MB-453 [5],55.6 nM
same,"EC50, CellTiter-Glo",HDQ-P1 [6],26.5 nM
same,"EC50, CellTiter-Glo",BT-549 [28],44.7 nM
same,"EC50, CellTiter-Glo",HCC1599 [29],61.9 nM
same,"EC50, CellTiter-Glo",HCC1143,28.2 nM
same,"EC50, CellTiter-Glo",HCC1937 [30],34.5 nM
same,"EC50, CellTiter-Glo",CAL-148 [31],35.8 nM
same,"EC50, CellTiter-Glo",CAL-51 [7],16.8 nM
same,"EC50, CellTiter-Glo",MDA-MB-468 [32],44.2 nM
same,"EC50, CellTiter-Glo",BT-474 [33],70 nM
same,"EC50, CellTiter-Glo",CAL-85-1 [8],23 nM
same,"EC50, CellTiter-Glo",SK-BR-3 [9],20.1 nM
same,"EC50, CellTiter-Glo",MDA-MB-231,75.9 nM
same,"EC50, CellTiter-Glo",DU-4475 [34],34.7 nM
same,"EC50, CellTiter-Glo",MDA-MB-436 [35],51.4 nM
same,"EC50, CellTiter-Glo",MCF-10A [10],29.6 nM
same,"EC50, CellTiter-Glo",CAL-120 [36],57.1 nM
same,"EC50, CellTiter-Glo",Hs578T [37],49.6 nM
same,"EC50, CellTiter-Blue viability",MDA-MB-453 [38],35.1 nM
same,"EC50, CellTiter-Blue viability",HDQ-P1 [39],53.6 nM
same,"EC50, CellTiter-Blue viability",CAL-148 [40],47.1 nM
same,"EC50, CellTiter-Blue viability",CAL-51 [41],63 nM
same,"EC50, CellTiter-Blue viability",CAL-85-1 [42],23.1 nM
same,"EC50, CellTiter-Blue viability",DU-4475 [43],46 nM
